Reference: US20250263370A1 (Tay Therapeutics Limited, priority 2022, published 2025)
Where “and” joins values, the source holds several entries; their conditions need not be identical. Equal entries are not always repeated. Entries after “also recorded” stand apart in the source; their conditions may differ.

System: collagen-induced arthritis
Assay: Collagen-induced arthritis (CIA) model in rats: body weight, paw volume, clinical scores, clinical observations; as to Average detailed clinical score, left hind limb: key of the grades not given here; as to Average detailed clinical score, right hind limb: key of the grades not given here; as to Detailed Clinical Scores, left forelimb: key of the grades not given here; as to Detailed Clinical Scores, left hind limb: key of the grades not given here; as to Detailed Clinical Scores, right forelimb: key of the grades not given here; as to Detailed Clinical Scores, right hind limb: key of the grades not given here; as to Detailed Clinical Scores, score: key of the grades not given here; as to Mean overall clinical score ± SD: key of the grades not given here; as to Overall clinical score: key of the grades not given here
Conditions: for Mean animal paw volume ± SD: group mean; for Detailed Clinical Scores, left forelimb / Detailed Clinical Scores, left hind limb / Detailed Clinical Scores, right forelimb / Detailed Clinical Scores, right hind limb / Detailed Clinical Scores, score: individual animals ID 1-8; for Overall clinical score: individual animals #1-8
Method: Prior to be randomly placed in treatment groups, animals were weighed, and paw volume was measured. Once randomly assigned to treatment groups, on Day 0, animals in groups 2-9 were immunized by subcutaneous injection at the base of the tail.
The immunization comprised 100 μL of the CFA+Collagen emulsion (prepared according to the method in Experimental Method A). Animals in group one received no immunization. Seven days after the first injection, animals in groups 2-9 received a booster immunization comprising 200 μL of the IFA+Collagen emulsion (prepared according to the method in Experimental Method A).
Starting on Day 0, animals in group 1 and 2 were administered daily doses of the vehicle per os (P.O.) for 21 days. […] The twice daily doses for animals in groups 4-9 were 8 hours apart (e.g., the first dose at 8:00 AM and the second dose at 4:00 PM).
Body weight of all animals was recorded daily for the 21-day period. Blind clinical scores on all four limbs were conducted for all animals in the study. Animals were assessed prior to receiving their first dose of the compound or control, and scores for each limb were combined to a total daily score for each animal. Clinical score assessments were performed on Day 0, 6, 12, 13, 14, 15, 18, 19, and 21 (for a total of 9 daily scores).
Paw volume was recorded for each animal on Day 0, 6, 12, 13, 14, 15, 18, 19, and 21 (for a total of 9 measurements). To measure paw volume, animals were gently held with one hand while the hind paw was placed into a plethysmometer with the other hand. Lipid displacement by the paw was recorded and used to represent paw volume.
All data measured and recorded was analyzed using SPSS 16.0 software. Groups were compared using one-way ANOVA and significance was set at p<0.05.

For `C[C@@H]1C[C@H]2[C@@H]3CCC4=CC(=O)C=C[C@]4(C)[C@@]3(F)[C@@H](O)C[C@]2(C)[C@@]1(O)C(=O)CO` [dexamethasone], the “Average animal paw volume percent change” value (CIA rats, Day 0, left hind paw (L)) was 0.00%, the “Animal paw volume Day 0 L” value (CIA rats, Day 0, left paw, individual animals) was 1.35 mL and 1.31 mL and 1.39 mL and 1.33 mL and 1.30 mL (2×) and 1.34 mL and 1.36 mL and the “Average animal paw volume percent change” value (CIA rats, Day 0, right hind paw (R)) was 0.00%. The “Animal paw volume Day 0 R” value (CIA rats, Day 0, right paw, individual animals) was 1.34 mL and 1.30 mL (2×) and 1.38 mL and 1.35 mL and 1.29 mL and 1.36 mL and 1.37 mL, the “Average animal paw volume percent change” value (CIA rats, Day 6, left hind paw (L)) was −3.37% and the “Animal paw volume Day 6 L” value (CIA rats, Day 6, left paw, individual animals) was 1.31 mL and 1.29 mL (3×) and 1.34 mL and 1.26 mL (2×) and 1.28 mL. The “Average animal paw volume percent change” value (CIA rats, Day 6, right hind paw (R)) was −3.26%, the “Animal paw volume Day 6 R” value (CIA rats, Day 6, right paw, individual animals) was 1.30 mL (3×) and 1.28 mL (2×) and 1.34 mL and 1.27 mL and 1.26 mL and the “Average animal paw volume percent change” value (CIA rats, Day 12, left hind paw (L)) was −4.94%. The “Animal paw volume Day 12 L” value (CIA rats, Day 12, left paw, individual animals) was 1.21 mL (2×) and 1.37 mL and 1.28 mL (2×) and 1.22 mL and 1.30 mL and 1.29 mL, the “Average animal paw volume percent change” value (CIA rats, Day 12, right hind paw (R)) was −5.21% and the “Animal paw volume Day 12 R” value (CIA rats, Day 12, right paw, individual animals) was 1.25 mL (2×) and 1.26 mL (2×) and 1.37 mL and 1.27 mL and 1.18 mL and 1.29 mL. The “Average animal paw volume percent change” value (CIA rats, Day 13, left hind paw (L)) was −3.57%, the “Animal paw volume Day 13 L” value (CIA rats, Day 13, left paw, individual animals) was 1.23 mL and 1.24 mL and 1.40 mL and 1.29 mL (2×) and 1.30 mL and 1.25 mL and 1.31 mL and the “Average animal paw volume percent change” value (CIA rats, Day 13, right hind paw (R)) was −4.08%. For the same molecule, the “Animal paw volume Day 13 R” value (CIA rats, Day 13, right paw, individual animals) was 1.26 mL and 1.27 mL and 1.38 mL and 1.25 mL and 1.28 mL and 1.21 mL and 1.31 mL and 1.29 mL, the “Average animal paw volume percent change” value (CIA rats, Day 14, left hind paw (L)) was −4.60% and the “Animal paw volume Day 14 L” value (CIA rats, Day 14, left paw, individual animals) was 1.24 mL (3×) and 1.39 mL and 1.27 mL and 1.28 mL and 1.29 mL and 1.25 mL. The “Average animal paw volume percent change” value (CIA rats, Day 14, right hind paw (R)) was −5.07%, the “Animal paw volume Day 14 R” value (CIA rats, Day 14, right paw, individual animals) was 1.26 mL (4×) and 1.38 mL and 1.23 mL and 1.20 mL and 1.29 mL and the “Average animal paw volume percent change” value (CIA rats, Day 15, left hind paw (L)) was −5.47%. For the same molecule, the “Animal paw volume Day 15 L” value (CIA rats, Day 15, left paw, individual animals) was 1.23 mL and 1.21 mL and 1.36 mL and 1.28 mL and 1.26 mL and 1.16 mL and 1.33 mL and 1.27 mL, the “Average animal paw volume percent change” value (CIA rats, Day 15, right hind paw (R)) was −5.41% and the “Animal paw volume Day 15 R” value (CIA rats, Day 15, right paw, individual animals) was 1.25 mL and 1.24 mL and 1.36 mL and 1.27 mL (2×) and 1.14 mL and 1.32 mL and 1.26 mL. The “Average animal paw volume percent change” value (CIA rats, Day 18, left hind paw (L)) was −3.01%, the “Animal paw volume Day 18 L” value (CIA rats, Day 18, left paw, individual animals) was 1.28 mL and 1.22 mL and 1.45 mL and 1.31 mL and 1.29 mL and 1.18 mL and 1.34 mL and 1.30 mL and the “Average animal paw volume percent change” value (CIA rats, Day 18, right hind paw (R)) was −3.14%. The “Animal paw volume Day 18 R” value (CIA rats, Day 18, right paw, individual animals) was 1.28 mL and 1.44 mL and 1.31 mL and 1.29 mL (2×) and 1.34 mL, the “Average animal paw volume percent change” value (CIA rats, Day 19, left hind paw (L)) was −3.33% and the “Animal paw volume Day 19 L” value (CIA rats, Day 19, left paw, individual animals) was 1.28 mL (2×) and 1.22 mL and 1.44 mL and 1.30 mL (2×) and 1.19 mL and 1.33 mL. For the same molecule, the “Average animal paw volume percent change” value (CIA rats, Day 19, right hind paw (R)) was −3.57%, the “Animal paw volume Day 19 R” value (CIA rats, Day 19, right paw, individual animals) was 1.27 mL (2×) and 1.22 mL and 1.44 mL and 1.31 mL and 1.18 mL and 1.32 mL and 1.30 mL and the “Average animal paw volume percent change” value (CIA rats, Day 21, left hind paw (L)) was −3.56%. For the same molecule, the “Animal paw volume Day 21 L” value (CIA rats, Day 21, left paw, individual animals) was 1.26 mL and 1.22 mL and 1.43 mL and 1.31 mL (2×) and 1.30 mL (2×) and 1.18 mL, the “Average animal paw volume percent change” value (CIA rats, Day 21, right hind paw (R)) was −3.51% and the “Animal paw volume Day 21 R” value (CIA rats, Day 21, right paw, individual animals) was 1.26 mL and 1.22 mL and 1.43 mL and 1.31 mL and 1.30 mL (2×) and 1.18 mL and 1.32 mL. For the same molecule, the “signs of disease over the 21-day period” value (CIA rats, daily P.O. for 21 days) was “No animals in group 3 (dexamethasone) ever received a score indicating that they exhibited symptoms of disease; also recorded: never exhibited any signs of disease”, the “effect on hind paw volume” value (CIA rats, daily P.O. for 21 days, listed as Dexamethasone) was “effective at controlling paw volume; also recorded: effective at preventing any change in paw volume throughout the entire 21-day period” and the “animals showing signs of disease” value (CIA rats, daily P.O., day 12) was “No animals”. For the same molecule, the “Mean animal paw volume ± SD” value (Day 0, L paw) was 1.33 mL, the “Animal paw volume percent change” value (Day 0, L paw, individual animals) was 0.00% and the “Mean animal paw volume ± SD” value (Day 0, R paw) was 1.33 mL. For the same molecule, the “Animal paw volume percent change” value (Day 0, R paw, individual animals) was 0.00%, the “Average detailed clinical score, left forelimb” value (Day 0, CIA rats) was 0.00 and the “Average detailed clinical score, left hind limb” value (Day 0, CIA rats) was 0.00. For the same molecule, the “Average detailed clinical score, right forelimb” value (Day 0, CIA rats) was 0.00, the “Average detailed clinical score, right hind limb” value (Day 0, CIA rats) was 0.00 and the “Average detailed clinical score, score” value (Day 0, CIA rats) was 0.00. The “Mean overall clinical score ± SD” value (Day 0, CIA rats) was 0 ± 0, the “Detailed Clinical Scores, left forelimb” value (Day 0, CIA rats) was 0 and the “Detailed Clinical Scores, left hind limb” value (Day 0, CIA rats) was 0. The “Detailed Clinical Scores, right forelimb” value (Day 0, CIA rats) was 0, the “Detailed Clinical Scores, right hind limb” value (Day 0, CIA rats) was 0 and the “Detailed Clinical Scores, score” value (Day 0, CIA rats) was 0. For the same molecule, the Overall clinical score (Day 0, CIA rats) was 0, the “Mean animal paw volume ± SD” value (Day 6, L paw) was 1.29 mL and the “Animal paw volume percent change” value (Day 6, L paw, individual animals) was −2.97% and −1.53% and −3.61% and −3.02% and −3.09% and −3.08% and −4.12% and −5.51%. For the same molecule, the “Mean animal paw volume ± SD” value (Day 6, R paw) was 1.29 mL, the “Animal paw volume percent change” value (Day 6, R paw, individual animals) was −3.00% and −1.16% and −2.91% and −3.72% and −1.56% and −2.70% and −5.90% and −5.13% and the “Average detailed clinical score, left forelimb” value (Day 6, CIA rats) was 0.00. For the same molecule, the “Average detailed clinical score, left hind limb” value (Day 6, CIA rats) was 0.00, the “Average detailed clinical score, right forelimb” value (Day 6, CIA rats) was 0.00 and the “Average detailed clinical score, right hind limb” value (Day 6, CIA rats) was 0.00. For the same molecule, the “Average detailed clinical score, score” value (Day 6, CIA rats) was 0.00, the “Mean overall clinical score ± SD” value (Day 6, CIA rats) was 0 ± 0 and the “Detailed Clinical Scores, left forelimb” value (Day 6, CIA rats) was 0. For the same molecule, the “Detailed Clinical Scores, left hind limb” value (Day 6, CIA rats) was 0, the “Detailed Clinical Scores, right forelimb” value (Day 6, CIA rats) was 0 and the “Detailed Clinical Scores, right hind limb” value (Day 6, CIA rats) was 0. The “Detailed Clinical Scores, score” value (Day 6, CIA rats) was 0, the Overall clinical score (Day 6, CIA rats) was 0 and the “Mean animal paw volume ± SD” value (Day 12, L paw) was 1.27 mL. For the same molecule, the “Animal paw volume percent change” value (Day 12, L paw, individual animals) was −10.41% and −7.66% and −1.44% and −3.40% and −1.54% and −6.54% and −3.00% and −5.51%, the “Mean animal paw volume ± SD” value (Day 12, R paw) was 1.26 mL and the “Animal paw volume percent change” value (Day 12, R paw, individual animals) was −6.74% and −3.09% and −0.73% and −7.43% and −1.56% and −9.27% and −7.01% and −5.86%. For the same molecule, the “Average detailed clinical score, left forelimb” value (Day 12, CIA rats) was 0.00, the “Average detailed clinical score, left hind limb” value (Day 12, CIA rats) was 0.00 and the “Average detailed clinical score, right forelimb” value (Day 12, CIA rats) was 0.00. The “Average detailed clinical score, right hind limb” value (Day 12, CIA rats) was 0.00, the “Average detailed clinical score, score” value (Day 12, CIA rats) was 0.00 and the “Mean overall clinical score ± SD” value (Day 12, CIA rats) was 0 ± 0. For the same molecule, the “Detailed Clinical Scores, left forelimb” value (Day 12, CIA rats) was 0, the “Detailed Clinical Scores, left hind limb” value (Day 12, CIA rats) was 0 and the “Detailed Clinical Scores, right forelimb” value (Day 12, CIA rats) was 0. The “Detailed Clinical Scores, right hind limb” value (Day 12, CIA rats) was 0, the “Detailed Clinical Scores, score” value (Day 12, CIA rats) was 0 and the Overall clinical score (Day 12, CIA rats) was 0. The “Mean animal paw volume ± SD” value (Day 13, L paw) was 1.28 mL, the “Animal paw volume percent change” value (Day 13, L paw, individual animals) was −8.92% and −5.36% and 0.72% and −3.02% and 0.00% and −4.23% and −2.25% and −5.51% and the “Mean animal paw volume ± SD” value (Day 13, R paw) was 1.28 mL. The “Animal paw volume percent change” value (Day 13, R paw, individual animals) was −5.99% and −2.32% and 0.36% and −7.43% and −0.78% and −6.95% and −3.69% and −5.86%.
